The values that follow come from ChEMBL document CHEMBL1159196, “Lignans interfering with 5 alpha-dihydrotestosterone binding to human sex hormone-binding globulin” (J Nat Prod, 1998).

Assay [1] deals with T1, Sex hormone-binding globulin (Homo sapiens) (UniProt P04278).
T1 sequence (whole entry): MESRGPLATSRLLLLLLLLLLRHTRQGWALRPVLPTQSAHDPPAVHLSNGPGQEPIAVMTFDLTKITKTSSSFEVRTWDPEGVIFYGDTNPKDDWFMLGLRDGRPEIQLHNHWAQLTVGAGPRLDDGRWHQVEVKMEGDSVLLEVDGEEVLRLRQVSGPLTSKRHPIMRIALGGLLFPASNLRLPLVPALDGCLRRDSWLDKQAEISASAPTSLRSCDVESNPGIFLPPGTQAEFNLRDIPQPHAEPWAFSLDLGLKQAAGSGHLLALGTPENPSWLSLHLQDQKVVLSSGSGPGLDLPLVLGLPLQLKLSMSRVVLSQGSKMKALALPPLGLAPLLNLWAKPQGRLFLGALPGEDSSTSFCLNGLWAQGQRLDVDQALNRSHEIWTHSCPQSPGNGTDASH
Briefly: Binding affinity to SHBG.

The target of assay [2] is T2, Sex hormone-binding globulin (Homo sapiens, UniProt P04278).
T2 sequence (P04278 whole entry): T1 sequence (whole entry)
The assay can be described thus: Displacement of [3H]DHT from human serum SHBG. For orientation: In a radioligand displacement assay an active substance lowers the binding of a labelled ligand.

Assay [3] deals with T1, Sex hormone-binding globulin (Homo sapiens). The assay can be described thus: Binding affinity to SHBG at 4 degC.
Assay [4] has the same target. The assay can be described thus: Binding affinity to human serum SHBG at 4 degC by competitive inhibition assay.

In the case of `C[C@]12CCC(=O)C[C@@H]1CC[C@@H]1[C@@H]2CC[C@]2(C)[C@@H](O)CC[C@@H]12`, the Ka in assay [1] is 2 ×10⁹ /M.

Usually IC50 stands for the concentration at which inhibition is half-maximal. Regarding `COc1cc(C[C@H]2COC(=O)[C@@H]2Cc2ccc(O)c(OC)c2)ccc1O` [MATAIRESINOL], in assay [2], the IC50 turned out to be 52 µM. Take `COc1cc(C[C@H]2COC[C@@H]2Cc2ccc(O)c(OC)c2)ccc1O`: the Ka in assay [3] amounted to 0.98 ×10⁹ /M; in assay [4] it was 3.2 ×10⁶ /M.

In turn, `C[C@]12CC[C@@H]3c4ccc(O)cc4CC[C@H]3[C@@H]1CC[C@@H]2O` yielded a Ka in assay [1] of 5 ×10⁸ /M. The same measure, in the same setting: in the case of `C[C@]12CC[C@H]3[C@@H](CCC4=CC(=O)CC[C@@]43C)[C@@H]1CC[C@@H]2O` it was 1 ×10⁹ /M. Compound `COc1cc(C[C@@H](CO)[C@H](CO)Cc2ccc(O)c(OC)c2)ccc1O` [(+)-SECOISOLARICIRESINOL] registered an IC50 in assay [2] of 230 µM. The same measure, in the same setting: in the case of `O=C1OCC(Cc2cccc(O)c2)C1Cc1cccc(O)c1` (racemic) it was 620 µM.
